Laboratory results from patent US20260216198A1, “GPR35 MODULATORS” (ThirtyFiveBio Limited, priority 2023, published 2026).

Molecular target: T1, GPR35 (Homo sapiens, UniProt Q9HC97)
T1 construct: expressed in transfected cells; host or cells: CHO-K1 cells co-expressing mitochondrial aequorin and Gα16
Experiment: cellular GPR35 phospho-ERK HTRF assay (inhibition of lodoxamide-induced phospho-ERK signal)
Format: cell-based
Conditions: GPR35-CHO-K1-mt aequorin-Gα16 cell line; agonist lodoxamide at EC80; read-out: Activity Group (IC50, inhibition of GPR35 agonist-induced phospho-ERK signal)
Outline: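 GPR35-CHO-K1-mt aequorin-Gα16 cells were stimulated with lodoxamide at its EC80. After lysis, phospho-ERK1/2 (Thr202/Tyr204) was read by HTRF sandwich with Eu-cryptate/d2 antibodies at 665 nm. IC50 is the modulator concentration giving 50% inhibition of the window between agonist-plus-vehicle and no-agonist controls.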

T1 sequence (Q9HC97 whole entry): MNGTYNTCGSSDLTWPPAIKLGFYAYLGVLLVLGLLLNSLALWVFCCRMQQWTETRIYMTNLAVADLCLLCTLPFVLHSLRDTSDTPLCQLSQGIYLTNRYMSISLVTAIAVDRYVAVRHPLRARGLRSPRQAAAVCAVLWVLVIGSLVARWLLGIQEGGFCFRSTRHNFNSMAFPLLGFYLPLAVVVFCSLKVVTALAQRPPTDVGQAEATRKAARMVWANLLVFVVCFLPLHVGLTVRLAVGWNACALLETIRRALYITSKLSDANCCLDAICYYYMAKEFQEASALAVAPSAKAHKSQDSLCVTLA

Structure (SMILES)	IC50 [nM]
Cc1ncc(-c2cc(C(=O)Nc3ccc(OCCc4ccccc4)cc3)ncn2)cc1C(=O)O [Example 69, 2-Methyl-5-[6-[[4-(2-phenylethoxy)phenyl]carbamoyl]pyrimidin-4-yl]pyridine-3-carboxylic acid]	< 1000
Cc1ncc(-c2ccnc(C(=O)Nc3ccc(OCCc4ccccc4)cc3)c2)cc1C(=O)O [Example 70, 2-Methyl-5-[2-[[4-(2-phenylethoxy)phenyl]carbamoyl]-4-pyridyl]pyridine-3-carboxylic acid]	< 1000
Cc1ncc(-c2cc(C(=O)Nc3ccc(OCCc4ccccc4)cc3)cnn2)cc1C(=O)O [Example 71, 2-Methyl-5-[5-[[4-(2-phenylethoxy)phenyl]carbamoyl]pyridazin-3-yl]pyridine-3-carboxylic acid]	1000 to 10000
Cc1ncc(-c2cc(C(=O)Nc3ccc(OCC4CC4)cc3)ccn2)cc1C(=O)O [Example 72, 5-[4-[[4-(Cyclopropylmethoxy)phenyl]carbamoyl]-2-pyridyl]-2-methyl-pyridine-3-carboxylic acid]	1000 to 10000
Cc1ncc(-c2cc(C(=O)Nc3ccc(OCC4CC4)cc3)c(F)cn2)cc1C(=O)O [Example 73, 5-[4-[[4-(Cyclopropylmethoxy)phenyl]carbamoyl]-5-fluoro-2-pyridyl]-2-methyl-pyridine-3-carboxylic acid]	1000 to 10000
Cc1ncc(-c2cc(C(=O)Nc3ccc(COCc4ccccc4)cc3)ccn2)cc1C(=O)O [Example 74, 5-[4-[[4-(Benzyloxymethyl)phenyl]carbamoyl]-2-pyridyl]-2-methyl-pyridine-3-carboxylic acid]	< 1000
Cc1cc(C(=O)Nc2ccc(COCc3ccccc3)cc2)cc(-c2cnc(C)c(C(=O)O)c2)n1 [Example 75, 5-[4-[[4-(Benzyloxymethyl)phenyl]carbamoyl]-6-methyl-2-pyridyl]-2-methyl-pyridine-3-carboxylic acid]	< 1000
Cc1ncc(-c2cc(C(=O)Nc3ccc(COCc4ccccc4)cc3)c(F)cn2)cc1C(=O)O [Example 76, 5-[4-[[4-(Benzyloxymethyl)phenyl]carbamoyl]-5-fluoro-2-pyridyl]-2-methyl-pyridine-3-carboxylic acid]	< 1000
Cc1ncc(-c2cc(C(=O)Nc3ccc(COCc4ccccc4)c(F)c3)ccn2)cc1C(=O)O [Example 77, 5-[4-[[4-(Benzyloxymethyl)-3-fluoro-phenyl]carbamoyl]-2-pyridyl]-2-methyl-pyridine-3-carboxylic acid]	< 1000
Cc1ncc(-c2cc(C(=O)Nc3ccc(COC4CC4)c(F)c3)ccn2)cc1C(=O)O [Example 78, 5-[4-[[4-(Cyclopropoxymethyl)-3-fluoro-phenyl]carbamoyl]-2-pyridyl]-2-methyl-pyridine-3-carboxylic acid]	1000 to 10000
Cc1ncc(-c2cc(C(=O)Nc3ccc(OCC4CC4)c(F)c3)ccn2)cc1C(=O)O [Example 79, 5-[4-[[4-(Cyclopropylmethoxy)-3-fluoro-phenyl]carbamoyl]-2-pyridyl]-2-methyl-pyridine-3-carboxylic acid]	1000 to 10000
COc1ccc(-c2cnc(C)c(C(=O)O)c2)cc1C(=O)Nc1ccc(COCc2ccccc2)cc1 [Example 80, 5-[3-[[4-(Benzyloxymethyl)phenyl]carbamoyl]-4-methoxy-phenyl]-2-methyl-pyridine-3-carboxylic acid]	< 1000
COc1ccc(C(=O)Nc2ccc(COCc3ccccc3)cc2)cc1-c1cnc(C)c(C(=O)O)c1 [Example 81, 5-[5-[[4-(Benzyloxymethyl)phenyl]carbamoyl]-2-methoxy-phenyl]-2-methyl-pyridine-3-carboxylic acid]	< 1000
Cc1ccc(-c2cnc(C)c(C(=O)O)c2)cc1C(=O)Nc1ccc(COCc2ccccc2)cc1 [Example 82, 5-[3-[[4-(Benzyloxymethyl)phenyl]carbamoyl]-4-methyl-phenyl]-2-methyl-pyridine-3-carboxylic acid]	1000 to 10000
Cc1ccc(C(=O)Nc2ccc(COCc3ccccc3)cc2)cc1-c1cnc(C)c(C(=O)O)c1 [Example 83, 5-[5-[[4-(Benzyloxymethyl)phenyl]carbamoyl]-2-methyl-phenyl]-2-methyl-pyridine-3-carboxylic acid]	< 1000
Cc1ncc(-c2ccc(F)c(C(=O)Nc3ccc(OCC4CC4)cc3)c2)cc1C(=O)O [Example 84, 5-[3-[[4-(Cyclopropylmethoxy)phenyl]carbamoyl]-4-fluoro-phenyl]-2-methyl-pyridine-3-carboxylic acid]	1000 to 10000
Cc1ncc(-c2cc(C(=O)Nc3ccc(COCc4ccccc4)cc3)ccc2F)cc1C(=O)O [Example 85, 5-[5-[[4-(Benzyloxymethyl)phenyl]carbamoyl]-2-fluoro-phenyl]-2-methyl-pyridine-3-carboxylic acid]	< 1000
Cc1ncc(-c2cccc(C(=O)Nc3ccc(COCc4ccccc4)cc3)c2F)cc1C(=O)O [Example 86, 5-[3-[[4-(Benzyloxymethyl)phenyl]carbamoyl]-2-fluoro-phenyl]-2-methyl-pyridine-3-carboxylic acid]	1000 to 10000
Cc1ncc(-c2ccc(F)c(C(=O)Nc3ccc(COCc4ccccc4)cc3)c2F)cc1C(=O)O [Example 87, 5-[3-[[4-(Benzyloxymethyl)phenyl]carbamoyl]-2,4-difluoro-phenyl]-2-methyl-pyridine-3-carboxylic acid]	1000 to 10000
Cc1ncc(-c2ccc(F)c(C(=O)Nc3ccc(COCC4CC4)c(F)c3)c2)cc1C(=O)O [Example 88, 5-[3-[[4-(Cyclopropylmethoxymethyl)-3-fluoro-phenyl]carbamoyl]-4-fluoro-phenyl]-2-methyl-pyridine-3-carboxylic acid]	< 1000

More lines, now with the values ahead:

IC50 [nM]	Structure (SMILES)
< 1000	Cc1ncc(-c2ccc(F)c(C(=O)Nc3ccc(OCC4CC4)c(F)c3)c2)cc1C(=O)O [Example 89, 5-[3-[[4-(Cyclopropylmethoxy)-3-fluoro-phenyl]carbamoyl]-4-fluoro-phenyl]-2-methyl-pyridine-3-carboxylic acid]
< 1000	Cc1ncc(-c2ccc(F)c(C(=O)Nc3ccc(COCc4ccccc4)c(F)c3)c2)cc1C(=O)O [Example 90, 5-[3-[[4-(Benzyloxymethyl)-3-fluoro-phenyl]carbamoyl]-4-fluoro-phenyl]-2-methyl-pyridine-3-carboxylic acid]
1000 to 10000	Cc1ncc(-c2ccc(F)c(C(=O)Nc3ccc(COC4CC4)c(F)c3)c2)cc1C(=O)O [Example 91, 5-[3-[[4-(Cyclopropoxymethyl)-3-fluoro-phenyl]carbamoyl]-4-fluoro-phenyl]-2-methyl-pyridine-3-carboxylic acid]
< 1000	Cc1ncc(-c2ccc(F)c(C(=O)Nc3ccc(OC(C)C4CC4)c(F)c3)c2)cc1C(=O)O (stereo not drawn) [Example 92, 5-[3-[[4-(1-Cyclopropylethoxy)-3-fluoro-phenyl]carbamoyl]-4-fluoro-phenyl]-2-methyl-pyridine-3-carboxylic acid]
1000 to 10000	Cc1ncc(-c2ccc(F)c(C(=O)Nc3ccc(OC(C)C4CC4)c(C#N)c3)c2)cc1C(=O)O (stereo not drawn) [Example 93, 5-[3-[[3-Cyano-4-(1-cyclopropylethoxy)phenyl]carbamoyl]-4-fluoro-phenyl]-2-methyl-pyridine-3-carboxylic acid]
1000 to 10000	CSc1ncc(C(=O)Nc2ccc(OCCc3ccccc3)cc2)cc1-c1cnc(C)c(C(=O)O)c1 [Example 94, 2-Methyl-5-[2-methylsulfanyl-5-[[4-(2-phenylethoxy)phenyl]carbamoyl]-3-pyridyl]pyridine-3-carboxylic acid]
1000 to 10000	COCCOc1ncc(C(=O)Nc2ccc(OCCc3ccccc3)cc2)cc1-c1cnc(C)c(C(=O)O)c1 [Example 95, 5-[2-(2-Methoxyethoxy)-5-[[4-(2-phenylethoxy)phenyl]carbamoyl]-3-pyridyl]-2-methyl-pyridine-3-carboxylic acid]
< 1000	Cc1ncc(-c2cccc(C(=O)Nc3ccc(CS(=O)(=O)c4ccc(Cl)cc4)cc3)c2)cc1C(=O)O [Example 96, 5-[3-[[4-[(4-Chlorophenyl)sulfonylmethyl]phenyl]carbamoyl]phenyl]-2-methyl-pyridine-3-carboxylic acid]
1000 to 10000	Cc1ncc(-c2cccc(C(=O)Nc3ccc(CS(=O)(=O)c4cccc(Cl)c4)cc3)c2)cc1C(=O)O [Example 97, 5-[3-[[4-[(3-Chlorophenyl)sulfonylmethyl]phenyl]carbamoyl]phenyl]-2-methyl-pyridine-3-carboxylic acid]
1000 to 10000	Cc1ncc(-c2cccc(C(=O)Nc3ccc(CS(=O)(=O)c4ccccc4Cl)cc3)c2)cc1C(=O)O [Example 98, 5-[3-[[4-[(2-Chlorophenyl)sulfonylmethyl]phenyl]carbamoyl]phenyl]-2-methyl-pyridine-3-carboxylic acid]
1000 to 10000	COc1ccc(S(=O)(=O)Cc2ccc(NC(=O)c3cccc(-c4cnc(C)c(C(=O)O)c4)c3)cc2)cc1 [Example 99, 5-[3-[[4-[(4-Methoxyphenyl)sulfonylmethyl]phenyl]carbamoyl]phenyl]-2-methyl-pyridine-3-carboxylic acid]
1000 to 10000	COc1cccc(S(=O)(=O)Cc2ccc(NC(=O)c3cccc(-c4cnc(C)c(C(=O)O)c4)c3)cc2)c1 [Example 100, 5-[3-[[4-[(3-Methoxyphenyl)sulfonylmethyl]phenyl]carbamoyl]phenyl]-2-methyl-pyridine-3-carboxylic acid]
1000 to 10000	Cc1ccc(S(=O)(=O)Cc2ccc(NC(=O)c3cccc(-c4cnc(C)c(C(=O)O)c4)c3)cc2)cn1 [Example 101, 2-Methyl-5-[3-[[4-[(6-methyl-3-pyridyl)sulfonylmethyl]phenyl]carbamoyl]phenyl]pyridine-3-carboxylic acid]
